Reference: ChEMBL document CHEMBL1157533 (J Med Chem, 2008)

Columns and labels:
[1] = AUC (0 to 24 hrs) in rat at 1.0 mg/kg, po by cassette assay; type: ADME, organism-based; parameters: time < 24 hr, dose 1 mg/kg, route oral; conditions: plasma
[2] = Total clearance in monkey at 0.32 mg/kg, iv by cassette assay; type: ADME, organism-based, Macaca mulatta; parameters: dose 0.32 mg/kg, route intravenous; conditions: rhesus monkey, in vivo
[3] = Bioavailability in monkey at 0.32 mg/kg, po by cassette assay; type: ADME, organism-based, Macaca mulatta; conditions: rhesus monkey, in vivo
[4] = Terminal half life in Beagle dog at 0.1 mg/kg, iv by cassette assay; type: ADME, organism-based, Canis lupus familiaris; parameters: dose 0.1 mg/kg, route intravenous; conditions: in vivo, read-out: beta t1/2 (converted)
[5] = Metabolic stability assessed as intrinsic clearance in monkey liver microsome in presence of NADPH-generating system; type: ADME, Macaca mulatta; conditions: rhesus monkey, liver microsomes
[6] = Cmax in rat at 1.0 mg/kg, po by cassette assay; type: ADME, organism-based; parameters: dose 1 mg/kg, route oral; conditions: in vivo
[7] = Volume of distribution at steady state in Beagle dog at 0.1 mg/kg, iv by cassette assay; type: ADME, organism-based, Canis lupus familiaris; parameters: dose 0.1 mg/kg, route intravenous; conditions: in vivo, read-out: Vdss
[8] = biological target: Beta-3 adrenergic receptor (Homo sapiens, UniProt P13945); test: Agonist activity at human recombinant beta3 adrenergic receptor expressed in CHO cells assessed as cAMP accumulation by enzyme immuno assay; type: functional, cell-based
Chain of Beta-3 adrenergic receptor (Homo sapiens, UniProt P13945) (P13945 whole entry): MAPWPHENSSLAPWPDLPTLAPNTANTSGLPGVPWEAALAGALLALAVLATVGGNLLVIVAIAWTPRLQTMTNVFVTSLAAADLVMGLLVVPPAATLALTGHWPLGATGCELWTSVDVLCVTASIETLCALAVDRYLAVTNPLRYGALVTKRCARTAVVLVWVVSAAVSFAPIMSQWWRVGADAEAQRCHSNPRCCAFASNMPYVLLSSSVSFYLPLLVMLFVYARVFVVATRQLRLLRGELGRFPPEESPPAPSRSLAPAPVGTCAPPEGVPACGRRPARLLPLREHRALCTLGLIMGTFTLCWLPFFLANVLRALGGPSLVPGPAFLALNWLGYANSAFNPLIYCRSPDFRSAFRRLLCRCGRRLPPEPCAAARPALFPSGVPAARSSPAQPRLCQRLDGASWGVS

[9] = Total clearance in Beagle dog at 0.1 mg/kg, iv by cassette assay; type: ADME, organism-based, Canis lupus familiaris; parameters: dose 0.1 mg/kg, route intravenous; conditions: in vivo
[10] = AUC (0 to 24 hrs) in dog at 0.1 mg/kg, po; type: ADME, organism-based, Canis lupus familiaris; parameters: time < 24 hr, dose 0.1 mg/kg, route oral; conditions: plasma
[11] = AUC (0 to 24 hrs) in monkey at 0.32 mg/kg, po by cassette assay; type: ADME, organism-based, Macaca mulatta; parameters: time < 24 hr, dose 0.32 mg/kg, route oral; conditions: rhesus monkey, plasma
[12] = biological target: Beta-3 adrenergic receptor (Canis lupus familiaris, UniProt O02662); test: Agonist activity at dog recombinant beta3 adrenergic receptor expressed in CHO cells assessed as cAMP accumulation by enzyme immuno assay; type: functional, cell-based
Chain of Beta-3 adrenergic receptor (Canis lupus familiaris, UniProt O02662) (O02662 whole entry): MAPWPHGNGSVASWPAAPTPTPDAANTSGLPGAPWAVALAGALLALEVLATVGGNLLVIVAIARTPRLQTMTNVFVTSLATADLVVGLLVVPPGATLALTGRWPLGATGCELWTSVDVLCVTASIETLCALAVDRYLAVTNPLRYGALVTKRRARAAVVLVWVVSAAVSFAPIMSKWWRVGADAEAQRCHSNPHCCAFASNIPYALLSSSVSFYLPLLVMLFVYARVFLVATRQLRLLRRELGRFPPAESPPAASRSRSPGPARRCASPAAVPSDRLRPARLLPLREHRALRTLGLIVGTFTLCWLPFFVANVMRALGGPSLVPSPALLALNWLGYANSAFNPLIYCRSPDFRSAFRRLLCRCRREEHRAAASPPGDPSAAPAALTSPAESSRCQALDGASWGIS

[13] = Protein binding in Beagle dog serum; type: ADME, cell-free, Canis lupus familiaris; conditions: read-out: PPB (converted)
Canis familiaris = organism: Canis familiaris; test: cells; conditions: Canis lupus familiaris, 3 h
Description: Inhibition of carbachol-induced increase in intravesical pressure in intraduodenally dosed Beagle dog OAB model for 180 mins

[14] = Terminal half life in dog at 0.1 mg/kg, iv; type: ADME, organism-based, Canis lupus familiaris; parameters: dose 0.1 mg/kg, route intravenous; conditions: in vivo, read-out: beta t1/2 (converted)
[15] = Bioavailability in rat at 1.0 mg/kg, po by cassette assay; type: ADME, organism-based; conditions: in vivo
[16] = biological target: Beta-1 adrenergic receptor (Homo sapiens, UniProt P08588); test: Agonist activity at human recombinant beta-1 adrenergic receptor expressed in CHO cells assessed as cAMP accumulation by enzyme immuno assay; type: functional, cell-based
Chain of Beta-1 adrenergic receptor (P08588 whole entry): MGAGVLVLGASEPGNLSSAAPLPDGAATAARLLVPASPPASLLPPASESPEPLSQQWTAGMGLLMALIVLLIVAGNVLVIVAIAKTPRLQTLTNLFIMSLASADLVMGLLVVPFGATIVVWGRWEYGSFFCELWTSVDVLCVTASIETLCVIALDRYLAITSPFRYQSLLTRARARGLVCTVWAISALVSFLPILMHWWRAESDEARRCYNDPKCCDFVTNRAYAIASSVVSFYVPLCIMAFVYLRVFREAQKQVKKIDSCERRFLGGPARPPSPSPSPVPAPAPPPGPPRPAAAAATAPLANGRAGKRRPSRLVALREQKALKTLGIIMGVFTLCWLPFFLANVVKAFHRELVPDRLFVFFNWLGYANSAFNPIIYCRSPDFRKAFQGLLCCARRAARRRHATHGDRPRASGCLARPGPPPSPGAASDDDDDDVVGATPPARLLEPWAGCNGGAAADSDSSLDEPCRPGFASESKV

[17] = Bioavailability in dog at 0.1 mg/kg, po; type: ADME, organism-based, Canis lupus familiaris; conditions: in vivo
[18] = biological target: Beta-2 adrenergic receptor (Homo sapiens, UniProt P07550); test: Agonist activity at human recombinant beta2 adrenergic receptor expressed in CHO cells assessed as cAMP accumulation by enzyme immuno assay; type: functional, cell-based
Chain of Beta-2 adrenergic receptor (P07550 whole entry): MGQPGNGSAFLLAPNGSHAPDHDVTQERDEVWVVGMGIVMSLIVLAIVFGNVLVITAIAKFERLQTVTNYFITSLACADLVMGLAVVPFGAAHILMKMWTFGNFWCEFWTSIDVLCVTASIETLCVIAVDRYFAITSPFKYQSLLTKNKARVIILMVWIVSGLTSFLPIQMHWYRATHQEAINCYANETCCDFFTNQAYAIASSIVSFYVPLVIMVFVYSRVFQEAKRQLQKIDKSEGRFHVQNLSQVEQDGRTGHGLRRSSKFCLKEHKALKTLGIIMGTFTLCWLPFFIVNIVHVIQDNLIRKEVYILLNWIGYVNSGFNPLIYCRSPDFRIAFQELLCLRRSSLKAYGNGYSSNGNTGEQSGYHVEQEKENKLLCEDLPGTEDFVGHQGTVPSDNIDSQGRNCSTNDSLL

[19] = AUC (0 to 24 hrs) in Beagle dog at 0.1 mg/kg, iv by cassette assay; type: ADME, organism-based, Canis lupus familiaris; parameters: time < 24 hr, dose 0.1 mg/kg, route intravenous; conditions: plasma
[20] = AUC (0 to 2 hrs) in Beagle dog at 0.1 mg/kg, po by cassette assay; type: ADME, organism-based, Canis lupus familiaris; parameters: time < 2 hr, dose 0.1 mg/kg, route oral; conditions: plasma
[21] = Cmax in dog at 0.1 mg/kg, po; type: ADME, organism-based, Canis lupus familiaris; parameters: dose 0.1 mg/kg, route oral; conditions: in vivo
[22] = Metabolic stability assessed as intrinsic clearance in rat liver microsome in presence of NADPH-generating system; type: ADME; conditions: liver microsomes
[23] = Metabolic stability assessed as intrinsic clearance in dog liver microsome in presence of NADPH-generating system; type: ADME, Canis lupus familiaris; conditions: liver microsomes
[24] = Bioavailability in Beagle dog at 0.1 mg/kg, po by cassette assay; type: ADME, organism-based, Canis lupus familiaris; conditions: in vivo
[25] = Total clearance in dog at 0.1 mg/kg, iv; type: ADME, organism-based, Canis lupus familiaris; parameters: dose 0.1 mg/kg, route intravenous; conditions: in vivo
[26] = Metabolic stability assessed as intrinsic clearance in human liver microsome in presence of NADPH-generating system; type: ADME; conditions: liver microsomes
[27] = Total clearance in rat at 1.0 mg/kg, iv by cassette assay; type: ADME, organism-based; parameters: dose 1 mg/kg, route intravenous; conditions: in vivo

CC(C)Oc1cc(-c2ccc(C[C@@H](C)NC[C@H](O)c3ccccc3)cc2)ccc1C(=O)O
AUC(0-t) at 24 h [1]: 1640 ng·h/mL
clearance [2]: 1.8 mL/min/kg
bioavailability [3]: 52.8%
half-life [4]: 15.5 h
CLint scaled [5]: < 1 mL/min/kg
Cmax [6]: 116 ng/mL
Vd [7]: 5.4 L/kg
EC50 [8]: 0.091 nM
clearance [9]: 6.5 mL/min/kg
AUC(0-t) at 24 h [10]: 162 ng·h/mL
AUC(0-t) at 24 h [11]: 1300 ng·h/mL
EC50 [12]: 0.19 nM
fraction unbound [13]: 0.14
EC50 (Canis familiaris): 2.5 nM
ED50 (Canis familiaris): 3.5 µg/kg
half-life [14]: 14.3 h
bioavailability [15]: 69.7%
EC50 [16]: 86 nM
bioavailability [17]: 79.6%
EC50 [18]: > 10000 nM
AUC(0-t) at 24 h [19]: 260 ng·h/mL
AUC(0-t) at 2 h [20]: 106 ng·h/mL
Cmax [21]: 8.5 ng/mL
CLint scaled [22]: < 0.1 mL/min/kg
CLint scaled [23]: < 0.1 mL/min/kg
bioavailability [24]: 41%
clearance [25]: 7.83 mL/min/kg
CLint scaled [26]: < 0.1 mL/min/kg
clearance [27]: 7.2 mL/min/kg
